Data on one substance can be found in publication PMC7005675 (Molecular Cell, 2020).

For orientation: Kd means the constant that tells how readily two partners part at equilibrium. Higher therefore signals lower affinity.

The target of this test is T1, RsiG (Streptomyces venezuelae, UniProt F2RFR7).
T1 sequence (F2RFR7 1-199): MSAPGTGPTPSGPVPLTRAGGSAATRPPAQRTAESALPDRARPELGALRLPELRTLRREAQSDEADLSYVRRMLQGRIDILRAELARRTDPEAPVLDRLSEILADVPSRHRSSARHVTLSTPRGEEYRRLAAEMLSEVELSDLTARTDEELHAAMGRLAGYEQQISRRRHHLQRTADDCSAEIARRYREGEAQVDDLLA
The test is described as follows: fluorescence polarization. It is filed as binding. Particulars: labelled compound; 150 mM NaCl, 25 mM Tris-HCl pH 7.5, 25°C; 1 nM probe.

Substance “2′-O-(6-[Fluoresceinyl]aminohexylcarbamoyl)-cyclic diguanosine monophosphate [2′-Fluo-AHC-c-di-GMP]” yielded a dissociation constant Kd of 6.5 ± 1.5 µM.
